“And” between values parts separate entries of the source, which are not always exact repeats. Equal values may be shown once. Toxic doses and inconclusive results are not listed.

From PubChem BioAssay AID330 (DTP/NCI, 2004) come the findings set out here.

The experiment deals with P388 leukemia ip, CD2F1 mice, survival T/C. Description: NCI In Vivo Anticancer Drug Screen. Data for tumor model P388 Leukemia (intraperitoneal) in CD2F1 (CDF1) mice. Conditions: endpoint: median survival time, higher = longer survival. Summed up: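 Mice carrying the transplanted tumor received test compound or vehicle. Survival was recorded in each group, and the value is the treated-group measurement divided by that of the vehicle-treated control group.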

[1] abbreviates: dose: 6.25 mg/kg/injection, schedule: Q01DX009 (ip), vehicle: Klucel (hydroxypropylcellulose) (HPC).
[2] abbreviates: dose: 12.5 mg/kg/injection, schedule: Q01DX009 (ip), vehicle: Klucel (hydroxypropylcellulose) (HPC).
Where [3] appears, read: dose: 50.0 mg/kg/injection, schedule: Q01DX005 (ip), vehicle: Klucel (hydroxypropylcellulose) (HPC).
[4] abbreviates: dose: 100.0 mg/kg/injection, schedule: Q01DX005 (ip), vehicle: Klucel (hydroxypropylcellulose) (HPC).
Setting [5] is: dose: 200.0 mg/kg/injection, schedule: Q01DX005 (ip), vehicle: Klucel (hydroxypropylcellulose) (HPC).
The mark [6] stands for this setting: dose: 50.0 mg/kg/injection, schedule: Q01DX009 (ip), vehicle: Klucel (hydroxypropylcellulose) (HPC).
The mark [7] stands for this setting: dose: 100.0 mg/kg/injection, schedule: Q01DX009 (ip), vehicle: Klucel (hydroxypropylcellulose) (HPC).
Setting [8] is: dose: 200.0 mg/kg/injection, schedule: Q01DX009 (ip), vehicle: Klucel (hydroxypropylcellulose) (HPC).
Setting [9] is: dose: 50.0 mg/kg/injection, schedule: Q01DX005 (ip), vehicle: saline with Tween-80.
[10] abbreviates: dose: 100.0 mg/kg/injection, schedule: Q01DX005 (ip), vehicle: saline with Tween-80.
Setting [11] is: dose: 50.0 mg/kg/injection, schedule: Q01DX009 (ip), vehicle: saline with Tween-80.
[12] abbreviates: dose: 100.0 mg/kg/injection, schedule: Q01DX009 (ip), vehicle: saline with Tween-80.

Regarding `CCN(CC)CCCC(C)Nc1cc(C)nc2cc(N(C)C)ccc12` (configuration not stated), the T/C was 99 % of control under setting [1]; 101 % of control under setting [2]; 109 % of control (dose: 25.0 mg/kg/injection, schedule: Q01DX009 (ip), vehicle: Klucel (hydroxypropylcellulose) (HPC)).
Consider `COc1cc2c(cc1OC)C(C#N)C2` (configuration not stated), for which the T/C is 100 % of control (dose: 0.78 mg/kg/injection, schedule: Q01DX009 (ip), vehicle: saline with Tween-80); 97 % of control (dose: 1.56 mg/kg/injection, schedule: Q01DX009 (ip), vehicle: saline with Tween-80); 102 % of control (dose: 3.12 mg/kg/injection, schedule: Q01DX009 (ip), vehicle: saline with Tween-80); 102 % of control (dose: 6.25 mg/kg/injection, schedule: Q01DX009 (ip), vehicle: saline with Tween-80).
In the case of `CNc1ccccc1C(=O)NCCCN`, the T/C under setting [3] was 98 % of control, the T/C under setting [4] was 95 % of control and the T/C under setting [5] was 95 % of control.
`N=Nc1c(O)[nH]c2ccccc12`: the T/C runs as follows: under setting [6], 89 % of control; under setting [7], 89 % of control; under setting [8], 95 % of control; (dose: 400.0 mg/kg/injection, schedule: Q01DX009 (ip), vehicle: Klucel (hydroxypropylcellulose) (HPC)) 100 % of control.
Consider `CCC1(CC)C(=O)C(CC)(CC)C1=O`, for which the T/C (dose: 60.0 mg/kg/injection, schedule: Q01DX005 (ip), vehicle: saline with Tween-80) is 104 % of control; the T/C (dose: 120.0 mg/kg/injection, schedule: Q01DX005 (ip), vehicle: saline with Tween-80) is 110 % of control; the T/C (dose: 240.0 mg/kg/injection, schedule: Q01DX005 (ip), vehicle: saline with Tween-80) is 110 % of control.
Turning to `CCCCn1c(C)nc2ccccc21`, the T/C was 100 % of control under setting [9] and 100 % of control under setting [10].
`CC(=O)c1ccc2c3c(cc(C)c2c1)CCCC3`: the T/C under setting [3] was 103 % of control, the T/C under setting [4] was 99 % of control and the T/C under setting [5] was 89 % of control.
Consider `C=CCn1c(=O)c2[nH]c(Cl)nc2n(CC)c1=O`, for which the T/C is 100 % of control and 105 % of control (dose: 16.0 mg/kg/injection, schedule: Q01DX009 (ip), vehicle: Klucel (hydroxypropylcellulose) (HPC)); 106 % of control and 94 % of control (dose: 32.0 mg/kg/injection, schedule: Q01DX009 (ip), vehicle: Klucel (hydroxypropylcellulose) (HPC)); 102 % of control and 106 % of control (dose: 64.0 mg/kg/injection, schedule: Q01DX009 (ip), vehicle: Klucel (hydroxypropylcellulose) (HPC)).
`O=[N+]([O-])c1ccc(-c2nc3ncncc3[nH]2)cc1`: the T/C by setting is: under setting [1], 107 % of control; under setting [2], 99 % of control.
`C/C(=C\C(=O)c1cccc(F)c1)N1CCN(c2cccc(C(F)(F)F)c2)CC1`: the T/C by setting is: under setting [3], 93 % of control; under setting [4], 94 % of control.
On to `O=C1C=C(NCCc2cc3c(cc2Br)OCO3)CCC1`, for which the T/C reads like this: (dose: 100.0 mg/kg/injection, schedule: Q04DX002 (ip), vehicle: saline with Tween-80) 97 % of control; (dose: 200.0 mg/kg/injection, schedule: Q04DX002 (ip), vehicle: saline with Tween-80) 91 % of control; (dose: 400.0 mg/kg/injection, schedule: Q04DX002 (ip), vehicle: saline with Tween-80) 95 % of control.
Regarding `COc1cc(NC(=O)CN(CCCl)CCCl)cc(OC)c1OC`, the T/C (dose: 25.0 mg/kg/injection, schedule: Q01DX009 (ip), vehicle: saline with Tween-80) was 157 % of control; the T/C under setting [11] is 213 % of control; the T/C (dose: 100.0 mg/kg/injection, schedule: Q01DX009 (ip), vehicle: saline sonified) is 163 % of control; the T/C under setting [12] was 120 % of control; the T/C (dose: 132.0 mg/kg/injection, schedule: Q04DX003 (ip), vehicle: saline sonified) was 100 % of control; the T/C (dose: 200.0 mg/kg/injection, schedule: Q01DX009 (ip), vehicle: saline sonified) is 159 % of control. Further, where the note is “dose: 200.0 mg/kg/injection, schedule: Q04DX003 (ip), vehicle: saline sonified”, the T/C was 110 % of control.
For `Cc1[nH]n(-c2ccc(Cl)cc2)c(=O)c1N=Nc1cccc(C(F)(F)F)c1`, the T/C reads like this: (dose: 50.0 mg/kg/injection, schedule: Q01DX009 (ip), vehicle: saline) 88 % of control; (dose: 100.0 mg/kg/injection, schedule: Q01DX009 (ip), vehicle: saline) 91 % of control; (dose: 200.0 mg/kg/injection, schedule: Q01DX009 (ip), vehicle: saline) 93 % of control.
For `Cc1ccc(N/N=C/C(=O)O)cc1`, the T/C (dose: 12.5 mg/kg/injection, schedule: Q01DX009 (ip), vehicle: other) is 113 % of control; the T/C (dose: 25.0 mg/kg/injection, schedule: Q01DX009 (ip), vehicle: other) is 103 % of control; the T/C (dose: 50.0 mg/kg/injection, schedule: Q01DX009 (ip), vehicle: other) was 112 % of control; the T/C (dose: 100.0 mg/kg/injection, schedule: Q01DX009 (ip), vehicle: other) is 98 % of control; the T/C (dose: 200.0 mg/kg/injection, schedule: Q01DX009 (ip), vehicle: other) is 116 % of control; the T/C (dose: 400.0 mg/kg/injection, schedule: Q01DX009 (ip), vehicle: other) is 116 % of control.
On to `CCCC1OC1(CC)COC(=O)NC` (configuration not stated), for which the T/C was 100 % of control under setting [9]; 101 % of control under setting [10]; 117 % of control (dose: 200.0 mg/kg/injection, schedule: Q01DX005 (ip), vehicle: saline with Tween-80).
In the case of `COc1ccc2c3c([nH]c2c1[N+](=O)[O-])C(C)NCC3` (configuration not stated), the T/C is 101 % of control (dose: 12.5 mg/kg/injection, schedule: Q01DX005 (ip), vehicle: Klucel (hydroxypropylcellulose) (HPC)); 92 % of control (dose: 25.0 mg/kg/injection, schedule: Q01DX005 (ip), vehicle: Klucel (hydroxypropylcellulose) (HPC)); 92 % of control under setting [3].
In the case of `[O-][n+]1ccccc1[S][Sn]([Cl])([Cl])[S]c1cccc[n+]1[O-]`, the T/C is 94 % of control under setting [11]; 106 % of control under setting [12]; 102 % of control (dose: 200.0 mg/kg/injection, schedule: Q01DX009 (ip), vehicle: saline with Tween-80).
For the molecule `CCOC(=O)C1=C(C)NC(SC)=NC1c1ccccc1` (configuration not stated), the T/C is, setting by setting: (dose: 60.0 mg/kg/injection, schedule: Q01DX005 (ip), vehicle: Klucel (hydroxypropylcellulose) (HPC)) 99 % of control; (dose: 120.0 mg/kg/injection, schedule: Q01DX005 (ip), vehicle: Klucel (hydroxypropylcellulose) (HPC)) 97 % of control; (dose: 240.0 mg/kg/injection, schedule: Q01DX005 (ip), vehicle: Klucel (hydroxypropylcellulose) (HPC)) 99 % of control.
With `NCCCNCCCCNC(=O)C(O)NC(=O)CC(O)CCCCN=C(N)N` (configuration not stated), the T/C is 152 % of control (dose: 6.25 mg/kg/injection, schedule: Q01DX005 (ip), vehicle: saline); 160 % of control (dose: 25.0 mg/kg/injection, schedule: Q01DX005 (ip), vehicle: saline); 150 % of control and 154 % of control (dose: 50.0 mg/kg/injection, schedule: Q01DX005 (ip), vehicle: saline); 156 % of control and 169 % of control (dose: 100.0 mg/kg/injection, schedule: Q01DX005 (ip), vehicle: saline).
For `Clc1ccc(N=Cc2ccc(C=Nc3ccc(Cl)cn3)cc2)nc1`, the T/C is 91 % of control under setting [6], 94 % of control under setting [7] and 93 % of control under setting [8].
Consider `CC(=O)Oc1ccccc1C(=O)OCC(=O)c1ccc2c(c1)Nc1ccccc1S2`, for which the T/C by setting is: (dose: 1.56 mg/kg/injection, schedule: Q01DX001 (ip), vehicle: Klucel (hydroxypropylcellulose) (HPC)) 93 % of control; (dose: 3.13 mg/kg/injection, schedule: Q01DX001 (ip), vehicle: Klucel (hydroxypropylcellulose) (HPC)) 95 % of control; (dose: 6.25 mg/kg/injection, schedule: Q01DX001 (ip), vehicle: Klucel (hydroxypropylcellulose) (HPC)) 90 % of control; (dose: 50.0 mg/kg/injection, schedule: Q01DX001 (ip), vehicle: Klucel (hydroxypropylcellulose) (HPC)) 87 % of control; (dose: 200.0 mg/kg/injection, schedule: Q01DX001 (ip), vehicle: Klucel (hydroxypropylcellulose) (HPC)) 94 % of control.
